Counter-ions that a name gives are not always drawn. Like-named read-outs stand apart in the source and are kept apart here.
Columns and labels:
[1] = system: nCoV-2019 (SARS-CoV2) infected Vero E6 cells; experiment: microbe, parasite or virus in culture; assay type: cell-based, SARS-CoV-2; settings: for inhibition at 0.075 µM: Severe acute respiratory syndrome coronavirus 2, Vero C1008, 0.075 μM
[2] = cited from earlier work; for Observed toxic effect: humans
[3] = African green monkeys; 1.6 mg/kg x 14 days; total dose 22.4; cited from earlier work
[4] = Rats; total of multi dose; cited from earlier work
[5] = mice; following 12 days post injection; cited from earlier work

## NC(=O)c1cn([C@@H]2O[C@H](CO)[C@@H](O)[C@H]2O)c2ncnc(N)c12 [Oya1, 4-amino-7-((2R,3R,4S,5R)-3,4-dihydroxy-5-(hydroxymethyl)tetrahydrofuran-2-yl)-7H-pyrrolo[2,3-d]pyrimidine-5-carboxamide]
[1]
  average toxicity margin or selectivity index: 4.8
  toxicity margin or selectivity index, high: 8.2
  toxicity margin or selectivity index, low: 3.1
[1]; MOI 0.6, FIG. 4 and FIG. 5
  fold increase in activity for Oya1 over chlorpromazine HCl: 1000 fold
[1]; MOI 1.3, FIG. 8 and FIG. 9
  fold increase in activity for Oya1 over chlorpromazine HCl: 1000 fold
[1]; MOI 0.6 Plate 1
  inhibition at 0.075 µM: 95.5%
[1]; MOI 0.6 Plate 2
  inhibition at 0.075 µM: 91.9%
[1]; Plate 1
  inhibition at 0.075 µM: 93.8%
[1]; Plate 2
  inhibition at 0.075 µM: 99.4%
[2]; Phase I clinical trials during the 1960's
  anti-cancer activity: inactive against cancer
[2]; Phase I clinical trials, dosing levels of Table 8
  tolerability in humans: well tolerated
[2]; daily, highest dosing regimen 120 μg/kg/day x 41 days
  Observed toxic effect: 0
[2]; thrice weekly, highest dosing regimen 50-250 μg/kg/day x 45 days
  Observed toxic effect: 0
[2]; weekly, highest dosing regimen 200 μg/kg/day x 150 days
  Observed toxic effect: 0
[3]
  Effect: lethal
[4]
  LD50, total dose: 1.2 mg/kg
[5]
  amount cleared: 40%

## NC(=O)c1cn([C@@H]2O[C@H](CO)[C@@H](O)[C@H]2O)c2ncnc(N)c12 [Oya2, 4-amino-7-((2R,3R,4S,5R)-3,4-dihydroxy-5-(hydroxymethyl)tetrahydrofuran-2-yl)-7H-pyrrolo[2,3-d]pyrimidine-5-carboxamide hydrochloride]
[1]; Severe acute respiratory syndrome coronavirus 2, Vero C1008, 0.0094 μM, MOI 0.6 Plate 2, Table 4C
  inhibition at 0.0094 µM: 33.9%
[1]; Severe acute respiratory syndrome coronavirus 2, Vero C1008, 0.0375 μM, Plate 2, Table 6C
  inhibition at 0.0375 µM: 12.2%
[1]; MOI 0.6 Plate 1, Table 3C
  inhibition at 0.075 µM: 45.6%
[1]; MOI 0.6 Plate 2, Table 4C
  inhibition at 0.075 µM: 83.1%
[1]; Severe acute respiratory syndrome coronavirus 2, Vero C1008, 0.15 μM, MOI 0.6 Plate 1, Table 3C
  inhibition at 0.15 µM: 90.1%

— patent publication US20210236497A1 (priority 2020, published 2021)
